Laboratory results published in US20110060009A1, “Hydroxamate-Based Inhibitors of Deacetylases” (NOVARTIS AG, priority 2009, published 2011).

What was measured:
HDAC-1 = target: T1, HDAC-1 (Homo sapiens, UniProt Q13547); experiment: HDAC Inhibition Assay (purified GST-HDAC protein); assay type: biochemical
T1 construct: made in house; host or cells: Sf9 or Sf21 insect cells (baculovirus, donor vector pFB-GSTX3)
From the text: The baculovirus donor vector pFB-GSTX3 is used to generate a recombinant baculovirus that expresses the HDAC polypeptide. Transfer vectors containing the HDAC coding region are transfected into the DH10Bac cell line (GIBCO) and plated on selective agar plates. Colonies without insertion of the fusion sequence into the viral genome (carried by the bacteria) are blue. Single, white colonies are picked and viral DNAs (bacmid) are isolated from the bacteria by standard plasmid purification procedures. Sf9 cells or Sf21 (American Type Culture Collection) cells are then transfected in […] flasks with the viral DNA using Cellfectin reagent.
Virus-containing media is collected from the transfected cell culture and used for infection to increase its titer. Virus-containing media obtained after two rounds of infection is used for large-scale protein expression. For large-scale protein expression 100 cm^2 round tissue culture plates are seeded with 5×10^7 cells/plate and infected with 1 mL of virus-containing media (at an approximately MOI of 5). After 3 days, the cells are scraped off the plate and centrifuged at 500 rpm for 5 minutes. Cell pellets from 10-20, 100 cm^2 plates, are re-suspended in 50 mL of ice-cold lysis buffer (25 mM tris-HCl, pH 7.5, 2 mM EDTA, 1% NP-40, 1 mM DTT, 1 mM P MSF). The cells are stirred on ice for 15 minutes and then centrifuged at 5,000 rpms for 20 minutes.
The centrifuged cell lysate is loaded onto a 2 mL glutathione-sepharose column (Pharmacia) and is washed thrice with 10 mL of 25 mM tris-HCl, pH 7.5, 2 mM EDTA, 1 mM DTT, 200 mM NaCl. The GST-tagged proteins are then eluted by 10 applications (1 mL each) of 25 mM tris-HCl, pH 7.5, 10 mM reduced-glutathione, 100 mM NaCl, 1 mM DTT, 10% glycerol and stored at −70° C.
HDAC assays with purified GST-HDAC protein are carried out in a final volume of 30 μL containing 15 ng of GST-HDAC protein, 20 mM tris-HCl, pH 7.5, 1 mM MnCl2, 10 mM MgCl2, 1 mM DTT, 3 μg/mL poly(Glu,Tyr) 4:1, 1% DMSO, 2.0 μM ATP (γ-[^33P]-ATP 0.1 μCi). The activity is assayed in the presence or absence of inhibitors. The assay is carried out in 96-well plates at ambient temperature for 15 minutes under conditions described below and terminated by the addition of 20 μL of 125 mM EDTA. Subsequently, 40 μL of the reaction mixture are transferred onto EMMOBILON-PVDF membrane (Millipore) previously soaked for 5 minutes with methanol, rinsed with water, then soaked for 5 minutes with 0.5% H3PO4 and mounted on vacuum manifold with disconnected vacuum source. After spotting all samples, a vacuum is connected and each well-rinsed with 200 μL 0.5% H3PO4. Membranes are removed and washed four times on a shaker with 1.0% H3PO4, once with ethanol. Membranes are counted after drying at ambient temperature, mounting in Packard TopCount 96-well frame, and addition of 10 μL/well of MICROSCINT™ (Packard). IC50 values are calculated by linear regression analysis of the percentage inhibition of each compound in duplicate, at 4 concentrations (usually 0.01, 0.1, 1 and 10 μM).
• Input: 3×4 μL stopped assay on IMMOBILON membrane, not washed • Background (3 wells): assay with H2O instead of enzyme • Positive control (4 wells): 3% DMSO instead of compound • Bath control (1 well): no reaction mix
IC50 values are calculated by logarithmic regression analysis of the percentage inhibition of each compound at 4 concentrations (usually 3- or 10-fold dilution series starting at 10 μM). In each experiment, the actual inhibition by reference compound is used for normalization of IC50 values to the basis of an average value of the reference inhibitor:
Normalized IC50=measured IC50 average ref. IC50/measured ref. IC50

HCT116 = HCT116 IC50 (Table 2, no method described); assay type: cell-based; settings: Homo sapiens, HCT-116

T1 sequence (Q13547 whole entry, species assumed): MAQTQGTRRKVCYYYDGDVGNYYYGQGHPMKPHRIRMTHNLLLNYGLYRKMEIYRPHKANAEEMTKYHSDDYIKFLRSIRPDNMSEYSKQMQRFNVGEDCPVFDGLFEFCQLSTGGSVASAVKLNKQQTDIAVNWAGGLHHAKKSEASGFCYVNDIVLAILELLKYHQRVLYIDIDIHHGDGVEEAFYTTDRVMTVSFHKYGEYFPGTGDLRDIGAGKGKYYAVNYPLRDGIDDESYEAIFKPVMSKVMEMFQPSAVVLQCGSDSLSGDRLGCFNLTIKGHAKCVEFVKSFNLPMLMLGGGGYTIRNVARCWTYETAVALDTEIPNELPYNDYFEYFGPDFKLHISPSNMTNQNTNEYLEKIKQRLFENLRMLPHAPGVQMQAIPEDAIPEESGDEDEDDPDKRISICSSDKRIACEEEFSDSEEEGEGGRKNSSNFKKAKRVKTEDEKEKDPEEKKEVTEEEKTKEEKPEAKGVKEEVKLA

Row | SMILES | IC50 (HDAC-1) | IC50 (HCT116)
1 | Cc1[nH]c2ccccc2c1C[C@H]1C[C@@H](O)CN1Cc1ccc(/C=C/C(=O)NO)cc1 [Cpd 20, (E)-N-Hydroxy-3-{4-[(2S,4R)-4-hydroxy-2-(2-methyl-1H-indol-3-ylmethyl)-pyrrolidin-1-ylmethyl]-phenyl}-acrylamide] | 0.6 nM | 1 nM
2 | O=C(/C=C/c1ccc(CN2CCC[C@H]2CN2CCc3ccccc32)cc1)NO [Cpd 19, (E)-3-{4-[(S)-2-(2,3-Dihydro-indol-1-ylmethyl)-pyrrolidin-1-ylmethyl]-phenyl}-N-hydroxy-acrylamide] | 36 nM | 100 nM
3 | O=C(/C=C/c1ccc(CN2CCC[C@@H]2Cn2nc(C(F)(F)F)cc2C(F)(F)F)cc1)NO [Cpd 51, (E)-3-{4-[(R)-2-(3,5-Bis-trifluoromethyl-pyrazol-1-ylmethyl)-pyrrolidin-1-ylmethyl]-phenyl}-N-hydroxy-acrylamide] | 39 nM | 31 nM
4 | Cc1cc(C)n(C[C@H]2CCCN2Cc2ccc(/C=C/C(=O)NO)cc2)n1 [Cpd 50, (E)-3-{4-[(R)-2-(3,5-Dimethyl-pyrazol-1-ylmethyl)-pyrrolidin-1-ylmethyl]-phenyl}-N-hydroxy-acrylamide] | 3 nM | 4 nM
5 | Cc1nn(C)c(C)c1C[C@H]1C[C@H](O)CN1Cc1ccc(/C=C/C(=O)NO)cc1 [Cpd 31, (E)-N-Hydroxy-3-{4-[(2S,4S)-4-hydroxy-2-(1,3,5-trimethyl-1H-pyrazol-4-ylmethyl)-pyrrolidin-1-ylmethyl]-phenyl}-acrylamide] | 2 nM | 16 nM

Continued, values first:

Row | IC50 (HDAC-1) | IC50 (HCT116) | SMILES
6 | 37 nM | 52 nM | O=C(/C=C/c1ccc(CN2C[C@H](O)C[C@@H]2Cn2nc(C(F)(F)F)cc2C(F)(F)F)cc1)NO [Cpd 52, (E)-3-{4-[(2R,4R)-2-(3,5-Bis-trifluoromethyl-pyrazol-1-ylmethyl)-4-hydroxy-pyrrolidin-1-ylmethyl]-phenyl}-N-hydroxy-acrylamide]
7 | 0.7 nM | 1 nM | Cc1[nH]c2ccccc2c1C[C@H]1C[C@H](O)CN1Cc1ccc(/C=C/C(=O)NO)cc1 [Cpd 21, (E)-N-Hydroxy-3-{4-[(2S,4S)-4-hydroxy-2-(2-methyl-1H-indol-3-ylmethyl)-pyrrolidin-l-ylmethyl]-phenyl}-acrylamide]
8 | 350 nM | 7000 nM | O=C(/C=C/c1ccc(CN2CCC[C@H]2C(=O)N2CCc3ccccc32)cc1)NO [Cpd 18, (E)-3-{4-[(S)-2-(2,3-Dihydro-indole-1-carbonyl)-pyrrolidin-1-ylmethyl]-phenyl}-N-hydroxy-acrylamide]
